Data published in ChEMBL document CHEMBL2429746, “Cell-based medicinal chemistry optimization of high throughput screening hits for orally active antimalarials. Part 2: hits from SoftFocus kinase and other libraries” (J Med Chem, 2013).

Legend:
Plasmodium falciparum [1] = experiment: Antimalarial activity against Plasmodium falciparum infected in po dosed SCID mouse assessed as reduction in parasitaemia by Peters test; type: functional
[2] = Half life in Sprague-Dawley rat at 5 mg/kg, po; type: ADME, organism-based; parameters: dose 5 mg/kg, route oral; details: in vivo
Plasmodium falciparum [3] = experiment: Antimalarial activity against blood stage of Plasmodium falciparum Dd2 assessed as parasite viability after 72 hrs by SYBR green dye-based assay; type: functional, organism-based; details: Dd2, 72 h
Plasmodium falciparum [4] = experiment: Antimalarial activity against blood stage of Plasmodium falciparum 3D7 assessed as parasite viability after 72 hrs by SYBR green dye-based assay; type: functional, organism-based; details: 3D7, 72 h
Plasmodium falciparum [5] = experiment: Antimalarial activity against Plasmodium falciparum infected in NOD SCID mouse after 4 days by Peters test; type: functional; details: 96 h

COc1ccc(-c2cc(-c3ccc(S(C)(=O)=O)cc3)cnc2N)cn1
ED90 (Plasmodium falciparum [1]): 3.6 mg/kg | half-life [2]: 8.7 h

NC1=Nc2ccc(Cl)cc2C1(O)c1ccccc1 (stereo not given)
IC50 (Plasmodium falciparum [3]): 507 nM | IC50 (Plasmodium falciparum [4]): 216 nM

O=C(O)CCc1cccc2c1B(O)OC2
ED90 (Plasmodium falciparum [5]): 0.6 mg/kg
